Source: US4293489A, “Derivatives of A-30912A nucleus” (Eli Lilly and Company, priority 1980, dated 1981)
Read-outs that look alike come from different tables or passages of the source. Starred links: 1 amine or outer side, 2 acyl side, 3 side chain; linkers in the order of their positions; H or OH if unused. Positions of bridges follow the written chain, without caps; N, C: chain ends. Non-standard residues stand in square brackets, D forms with d. Residues, ends and D or L forms follow the SMILES beside them. *: point of attachment. Orn(4R-OH,5R-OH) = O=C([C@H](C[C@@H](O)[C@@H](O)N[*:3])N[*:1])[*:2]; hTyr(3S-OH,4S-OH) = N[C@H](C(=O)O)[C@H](O)[C@@H](O)c1ccc(O)cc1; Benzoyl(4-dodecyloxy) = CCCCCCCCCCCCOc1ccc(C(=O)*)cc1; Benzoyl(4-OC10H21) = CCCCCCCCCCOc1ccc(C(=O)*)cc1; Pro(3S-OH,4S-Me) = C[C@H]1CN[C@H](C(=O)O)[C@H]1O; Benzoyl(4-octyloxy) = CCCCCCCCOc1ccc(C(=O)*)cc1; X28 = CCCCCCCC[S+]([O-])c1ccc(C(=O)*)cc1; X20 = CCCCCCCCCCCCCCOc1ccc(C(=O)*)cc1; X24 = CCCCCCCCCCCCCCOc1cccc(C(=O)*)c1; X18 = CCCCCCCCCCCCOc1ccc(CC(=O)*)cc1; X27 = CCCCCCCCCCCCOc1cccc(CC(=O)*)c1; X1 = CCCCCCCCCCCCSc1ccc(C(=O)*)cc1; X16 = CCCCCCCCOc1ccc(C=CC(=O)*)cc1; X11 = CCCCCCCCOc1ccc(OCC(=O)*)cc1; Hyp = O=C(O)[C@@H]1C[C@@H](O)CN1; X15 = CCCCCCCCOc1cccc(CC(=O)*)c1; X6 = CCCCCCCCCCSc1ccc(C(=O)*)cc1; X7 = CCCCCCCCSc1ccc(C(=O)*)cc1

Tests used:
Candida albicans A-26 [1] = assay: Therapeutic activity against Candida albicans A-26 infection in mice, ED50; format: in vivo; conditions: doses 0, 4 and 24 hours post infection, increase in survival time vs control, Reed-Muench
Method: (§1) The results of in vivo tests to evaluate the effectiveness of the compounds of Examples 3 and 4 against an infection caused by Candida albicans A-26 in mice are given in Table 13, where activity is measured by the ED50 value (the dose in mg/kg. required to cure 50% of the test animals). In a separate test, the results of which are also summarized in Table 13, activity is indicated by the lowest dose at which a significant anti-fungal effect is observed. In this test, groups of male albino mice (specific pathogen free), weighing 18 to 20 grams, are infected intravenously with Candida albicans A-26. The animals are X-irradiated 24 hours prior to infection at about 50 roentgens per minute for 8 minutes (400 total dose) to reduce immune responses to the infecting organism. At 0, 4, and 24 hours post infection each group of mice is given graded doses subcutaneously of the test compound as a suspension in 33% polyethylene glycol (PEG)-water. The day of death for each animal is recorded.
(§2) *Dosage Schedules: A. = 40, 20, 15 and 10 mg/kg; Dosages given 0, 4, and
(§3) 24 hours post injection as suspension of test compound in 30% PEGH2
(§4) O. Number of mice receiving test compounds at each dosage level: 6 mice
(§5) per group. Number of mice in control (untreated) group: 10 mice per group
**As measured by increase in survival time of treated animals versus
control, calculated by method of Reed v Mueuch, American J. Hygiene, 27,

Candida albicans A-26 [2] = assay: Therapeutic activity against Candida albicans A-26 infection in X-irradiated mice, lowest active dose; format: in vivo; conditions: A26, light or radiation study, sc
Method: as §1, §2, §3, §4, §5

Candida albicans A-26 [3] = assay: Agar plate disc diffusion test, MIC per disc; format: cell-based; conditions: 0.1M sodium borate, pH 7.5, 24 hours, 30° C.
Method: (§6) Tables 10 and 11 give the results of the testing in vitro of the compounds of Examples 3 and 4 by agar-plate disc-diffusion methods. In Table 10 activity is measured by the size (diameter in mm) of the observed zone of inhibition of the microorganism produced by the test compound. In Table 11, activity is measured by the minimal inhibitory concentration (MIC) of the substance (μg/disc) required to inhibit growth of the test organism. Table 12 gives the results of the testing in vitro of the p-(n-octyloxy)benzoyl derivative of A30912A nucleus [Formula III, R^1 is p-(n-octyloxy)benzoyl] against five strains of Candida albicans by the agar dilution method. In Table 12 activity is measured by the minimal inhibitory concentration (MIC) of the substance (μg/ml) required to inhibit the test organism.
(§7) ^(a) Compounds were suspended in 0.1M sodium borate solution, pH 7.5.
(§8) The compounds were tested at 20 μg/disc at top level and at twofold
(§9) dilutions until end points were reached. Incubation: 24 hours; 30°

[4] = tested on: Trychophyton mentagrophyes #6; assay: Agar plate disc diffusion test, MIC per disc; format: cell-based, Trichophyton mentagrophytes; conditions: 0.1M sodium borate, pH 7.5, 24 hours, 30° C., * measurable zones with regrowth of organism around disc
Method: as §6, §7, §8, §9
*Measurable zones of inhibition with regrowth of organism around disc.

[5] = Candida albicans, A26, sc, read-out: ED50
[6] = X-irradiated mice, subcutaneous at 0, 4 and 24 hours post infection, survival, read-out: Lowest Active Dose
[7] = read-out: Lowest Active Dose, X-irradiated mice, subcutaneous at 0, 4 and 24 hours post infection, survival

SMILES	ED50 (Candida albicans A-26 [1]; [5])	minimal effective dose (Candida albicans A-26 [2]; [6])	MIC (Candida albicans A-26 [3])	MIC [4]	minimal effective dose (Candida albicans A-26 [2]; [7])	ED50 (Candida albicans A-26 [1])
CCCCCCCCCCCCCCOc1cccc(C(=O)N[C@H]2C[C@@H](O)[C@@H](O)NC(=O)[C@@H]3[C@@H](O)[C@@H](C)CN3C(=O)[C@H]([C@@H](C)O)NC(=O)[C@H]([C@H](O)[C@@H](O)c3ccc(O)cc3)NC(=O)[C@@H]3C[C@@H](O)CN3C(=O)[C@H]([C@@H](C)O)NC2=O)c1 (X24-[Orn(4R-OH,5R-OH)]T[Hyp][hTyr(3S-OH,4S-OH)]T[Pro(3S-OH,4S-Me)]; lactam 1-C)	> 50 mg/kg	> 40 mg/kg	–	–	–	–
CCCCCCCCCCCCOc1cccc(CC(=O)N[C@H]2C[C@@H](O)[C@@H](O)NC(=O)[C@@H]3[C@@H](O)[C@@H](C)CN3C(=O)[C@H]([C@@H](C)O)NC(=O)[C@H]([C@H](O)[C@@H](O)c3ccc(O)cc3)NC(=O)[C@@H]3C[C@@H](O)CN3C(=O)[C@H]([C@@H](C)O)NC2=O)c1 (X27-[Orn(4R-OH,5R-OH)]T[Hyp][hTyr(3S-OH,4S-OH)]T[Pro(3S-OH,4S-Me)]; lactam 1-C)	7.4 mg/kg	20 mg/kg	–	–	–	–
CCCCCCCC[S+]([O-])c1ccc(C(=O)N[C@H]2C[C@@H](O)[C@@H](O)NC(=O)[C@@H]3[C@@H](O)[C@@H](C)CN3C(=O)[C@H]([C@@H](C)O)NC(=O)[C@H]([C@H](O)[C@@H](O)c3ccc(O)cc3)NC(=O)[C@@H]3C[C@@H](O)CN3C(=O)[C@H]([C@@H](C)O)NC2=O)cc1 (stereo partly drawn) (X28-[Orn(4R-OH,5R-OH)]T[Hyp][hTyr(3S-OH,4S-OH)]T[Pro(3S-OH,4S-Me)]; lactam 1-C)	56.6 mg/kg	> 40 mg/kg	–	–	–	–
CCCCCCCCOc1ccc(C=CC(=O)N[C@H]2C[C@@H](O)[C@@H](O)NC(=O)[C@@H]3[C@@H](O)[C@@H](C)CN3C(=O)[C@H]([C@@H](C)O)NC(=O)[C@H]([C@H](O)[C@@H](O)c3ccc(O)cc3)NC(=O)[C@@H]3C[C@@H](O)CN3C(=O)[C@H]([C@@H](C)O)NC2=O)cc1 [drawing 140] (X16-[Orn(4R-OH,5R-OH)]T[Hyp][hTyr(3S-OH,4S-OH)]T[Pro(3S-OH,4S-Me)]; lactam 1-C)	–	–	0.156 μg/disc	0.156 μg/disc	–	–
CCCCCCCCOc1cccc(CC(=O)N[C@H]2C[C@@H](O)[C@@H](O)NC(=O)[C@@H]3[C@@H](O)[C@@H](C)CN3C(=O)[C@H]([C@@H](C)O)NC(=O)[C@H]([C@H](O)[C@@H](O)c3ccc(O)cc3)NC(=O)[C@@H]3C[C@@H](O)CN3C(=O)[C@H]([C@@H](C)O)NC2=O)c1 [drawing 141] (X15-[Orn(4R-OH,5R-OH)]T[Hyp][hTyr(3S-OH,4S-OH)]T[Pro(3S-OH,4S-Me)]; lactam 1-C)	–	–	5 μg/disc	80 μg/disc	–	–
CCCCCCCCCCCCOc1ccc(CC(=O)N[C@H]2C[C@@H](O)[C@@H](O)NC(=O)[C@@H]3[C@@H](O)[C@@H](C)CN3C(=O)[C@H]([C@@H](C)O)NC(=O)[C@H]([C@H](O)[C@@H](O)c3ccc(O)cc3)NC(=O)[C@@H]3C[C@@H](O)CN3C(=O)[C@H]([C@@H](C)O)NC2=O)cc1 [drawing 142] (X18-[Orn(4R-OH,5R-OH)]T[Hyp][hTyr(3S-OH,4S-OH)]T[Pro(3S-OH,4S-Me)]; lactam 1-C)	–	–	0.312 μg/disc	0.625 μg/disc	–	–
CCCCCCCCOc1ccc(OCC(=O)N[C@H]2C[C@@H](O)[C@@H](O)NC(=O)[C@@H]3[C@@H](O)[C@@H](C)CN3C(=O)[C@H]([C@@H](C)O)NC(=O)[C@H]([C@H](O)[C@@H](O)c3ccc(O)cc3)NC(=O)[C@@H]3C[C@@H](O)CN3C(=O)[C@H]([C@@H](C)O)NC2=O)cc1 [drawing 145] (X11-[Orn(4R-OH,5R-OH)]T[Hyp][hTyr(3S-OH,4S-OH)]T[Pro(3S-OH,4S-Me)]; lactam 1-C)	–	–	0.312 μg/disc	80 μg/disc	–	–
CCCCCCCCOc1ccc(C(=O)N[C@H]2C[C@@H](O)[C@@H](O)NC(=O)[C@@H]3[C@@H](O)[C@@H](C)CN3C(=O)[C@H]([C@@H](C)O)NC(=O)[C@H]([C@H](O)[C@@H](O)c3ccc(O)cc3)NC(=O)[C@@H]3C[C@@H](O)CN3C(=O)[C@H]([C@@H](C)O)NC2=O)cc1 [drawing 151] ({Benzoyl(4-octyloxy)}-[Orn(4R-OH,5R-OH)]T[Hyp][hTyr(3S-OH,4S-OH)]T[Pro(3S-OH,4S-Me)]; lactam 1-C)	–	< 12.5 mg/kg	–	–	10 mg/kg	–
CCCCCCCCCCOc1ccc(C(=O)N[C@H]2C[C@@H](O)[C@@H](O)NC(=O)[C@@H]3[C@@H](O)[C@@H](C)CN3C(=O)[C@H]([C@@H](C)O)NC(=O)[C@H]([C@H](O)[C@@H](O)c3ccc(O)cc3)NC(=O)[C@@H]3C[C@@H](O)CN3C(=O)[C@H]([C@@H](C)O)NC2=O)cc1 [drawing 152] ({Benzoyl(4-OC10H21)}-[Orn(4R-OH,5R-OH)]T[Hyp][hTyr(3S-OH,4S-OH)]T[Pro(3S-OH,4S-Me)]; lactam 1-C)	8 mg/kg	–	–	–	5 mg/kg	–
CCCCCCCCCCCCOc1ccc(C(=O)N[C@H]2C[C@@H](O)[C@@H](O)NC(=O)[C@@H]3[C@@H](O)[C@@H](C)CN3C(=O)[C@H]([C@@H](C)O)NC(=O)[C@H]([C@H](O)[C@@H](O)c3ccc(O)cc3)NC(=O)[C@@H]3C[C@@H](O)CN3C(=O)[C@H]([C@@H](C)O)NC2=O)cc1 [drawing 153] ({Benzoyl(4-dodecyloxy)}-[Orn(4R-OH,5R-OH)]T[Hyp][hTyr(3S-OH,4S-OH)]T[Pro(3S-OH,4S-Me)]; lactam 1-C)	< 5 mg/kg	2.5 mg/kg	–	–	≤ 5 mg/kg	3.9 mg/kg
CCCCCCCCCCCCCCOc1ccc(C(=O)N[C@H]2C[C@@H](O)[C@@H](O)NC(=O)[C@@H]3[C@@H](O)[C@@H](C)CN3C(=O)[C@H]([C@@H](C)O)NC(=O)[C@H]([C@H](O)[C@@H](O)c3ccc(O)cc3)NC(=O)[C@@H]3C[C@@H](O)CN3C(=O)[C@H]([C@@H](C)O)NC2=O)cc1 [drawing 154] (X20-[Orn(4R-OH,5R-OH)]T[Hyp][hTyr(3S-OH,4S-OH)]T[Pro(3S-OH,4S-Me)]; lactam 1-C)	3 mg/kg	–	–	–	5 mg/kg	–
CCCCCCCCSc1ccc(C(=O)N[C@H]2C[C@@H](O)[C@@H](O)NC(=O)[C@@H]3[C@@H](O)[C@@H](C)CN3C(=O)[C@H]([C@@H](C)O)NC(=O)[C@H]([C@H](O)[C@@H](O)c3ccc(O)cc3)NC(=O)[C@@H]3C[C@@H](O)CN3C(=O)[C@H]([C@@H](C)O)NC2=O)cc1 [drawing 155] (X7-[Orn(4R-OH,5R-OH)]T[Hyp][hTyr(3S-OH,4S-OH)]T[Pro(3S-OH,4S-Me)]; lactam 1-C)	37.4 mg/kg	–	–	–	10 mg/kg	–
CCCCCCCCCCSc1ccc(C(=O)N[C@H]2C[C@@H](O)[C@@H](O)NC(=O)[C@@H]3[C@@H](O)[C@@H](C)CN3C(=O)[C@H]([C@@H](C)O)NC(=O)[C@H]([C@H](O)[C@@H](O)c3ccc(O)cc3)NC(=O)[C@@H]3C[C@@H](O)CN3C(=O)[C@H]([C@@H](C)O)NC2=O)cc1 [drawing 156] (X6-[Orn(4R-OH,5R-OH)]T[Hyp][hTyr(3S-OH,4S-OH)]T[Pro(3S-OH,4S-Me)]; lactam 1-C)	28 mg/kg	20 mg/kg	–	–	–	–
CCCCCCCCCCCCSc1ccc(C(=O)N[C@H]2C[C@@H](O)[C@@H](O)NC(=O)[C@@H]3[C@@H](O)[C@@H](C)CN3C(=O)[C@H]([C@@H](C)O)NC(=O)[C@H]([C@H](O)[C@@H](O)c3ccc(O)cc3)NC(=O)[C@@H]3C[C@@H](O)CN3C(=O)[C@H]([C@@H](C)O)NC2=O)cc1 [drawing 157] (X1-[Orn(4R-OH,5R-OH)]T[Hyp][hTyr(3S-OH,4S-OH)]T[Pro(3S-OH,4S-Me)]; lactam 1-C)	2 mg/kg	< 1.25 mg/kg	–	–	–	–
